Data: US7439226B2, “Serine protease inhibitors” (The United States of America as represented by the …, priority 2003, dated 2008)

What was measured:
[1] = biological target: T1, Urokinase-type plasminogen activator (uPA) (Homo sapiens, UniProt P00749); test: uPA inhibition, fluorescent substrate N-t-Boc-Leu-Gly-Arg-AMC, Ki by Dixon plots; format: biochemical; conditions: room temperature, pH 8.5
T1 construct: from a partially purified uPA from human urine; from tissue; host or cells: human urine
Text: (§1) 13, 2003, and which is incorporated herein by reference.

thrombin = thrombin (Homo sapiens, UniProt P00734); conditions: background statement; cited from earlier work
bovine thrombin = biological target: T2, bovine thrombin (Bos taurus, UniProt P00735); test: Thrombin inhibition, fluorescent substrate N-t-Boc Leu-Arg-Arg-AMC, Ki by Dixon plots; format: biochemical; conditions: read-out: Ki of SFTI-1 (nM), Thrombin; room temperature, pH 8.5
T2 construct: purchased Sigma (Sigma Chemical Co., St. Louis, Mo.)
Text: as §1

cathepsin G = biological target: T3, cathepsin G (Homo sapiens, UniProt P08311); conditions: background statement; cited from earlier work
T3 sequence (P08311 21-244): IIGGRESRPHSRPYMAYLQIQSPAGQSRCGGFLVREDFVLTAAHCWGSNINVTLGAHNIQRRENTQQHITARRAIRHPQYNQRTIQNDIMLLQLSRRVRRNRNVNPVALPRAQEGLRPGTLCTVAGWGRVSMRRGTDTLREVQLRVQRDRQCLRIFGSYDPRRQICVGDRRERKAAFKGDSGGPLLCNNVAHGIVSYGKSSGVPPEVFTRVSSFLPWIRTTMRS

elastase = conditions: background statement; cited from earlier work
Factor Xa = Factor Xa (Homo sapiens, UniProt P00742); conditions: Luckett et al. J Mol. Biol. 1999; cited from earlier work
Factor Xa, sequence (P00742 235-488 limits assumed): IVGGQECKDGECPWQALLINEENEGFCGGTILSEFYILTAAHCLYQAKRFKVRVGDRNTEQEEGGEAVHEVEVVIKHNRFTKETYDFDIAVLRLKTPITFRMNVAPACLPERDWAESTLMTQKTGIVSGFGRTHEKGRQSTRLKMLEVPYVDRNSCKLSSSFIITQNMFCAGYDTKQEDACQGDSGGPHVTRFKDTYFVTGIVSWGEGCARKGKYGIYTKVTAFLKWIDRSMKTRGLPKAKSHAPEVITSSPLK
Factor Xa, sequence (P00742 41-179 partner limits assumed): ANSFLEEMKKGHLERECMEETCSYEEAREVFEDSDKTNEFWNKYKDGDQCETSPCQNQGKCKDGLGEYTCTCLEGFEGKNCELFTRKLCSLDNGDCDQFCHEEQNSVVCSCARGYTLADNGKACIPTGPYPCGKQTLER

matriptase = matriptase (Homo sapiens, UniProt Q9Y5Y6); conditions: background statement; cited from earlier work
matriptase, sequence (Q9Y5Y6 whole entry, species assumed): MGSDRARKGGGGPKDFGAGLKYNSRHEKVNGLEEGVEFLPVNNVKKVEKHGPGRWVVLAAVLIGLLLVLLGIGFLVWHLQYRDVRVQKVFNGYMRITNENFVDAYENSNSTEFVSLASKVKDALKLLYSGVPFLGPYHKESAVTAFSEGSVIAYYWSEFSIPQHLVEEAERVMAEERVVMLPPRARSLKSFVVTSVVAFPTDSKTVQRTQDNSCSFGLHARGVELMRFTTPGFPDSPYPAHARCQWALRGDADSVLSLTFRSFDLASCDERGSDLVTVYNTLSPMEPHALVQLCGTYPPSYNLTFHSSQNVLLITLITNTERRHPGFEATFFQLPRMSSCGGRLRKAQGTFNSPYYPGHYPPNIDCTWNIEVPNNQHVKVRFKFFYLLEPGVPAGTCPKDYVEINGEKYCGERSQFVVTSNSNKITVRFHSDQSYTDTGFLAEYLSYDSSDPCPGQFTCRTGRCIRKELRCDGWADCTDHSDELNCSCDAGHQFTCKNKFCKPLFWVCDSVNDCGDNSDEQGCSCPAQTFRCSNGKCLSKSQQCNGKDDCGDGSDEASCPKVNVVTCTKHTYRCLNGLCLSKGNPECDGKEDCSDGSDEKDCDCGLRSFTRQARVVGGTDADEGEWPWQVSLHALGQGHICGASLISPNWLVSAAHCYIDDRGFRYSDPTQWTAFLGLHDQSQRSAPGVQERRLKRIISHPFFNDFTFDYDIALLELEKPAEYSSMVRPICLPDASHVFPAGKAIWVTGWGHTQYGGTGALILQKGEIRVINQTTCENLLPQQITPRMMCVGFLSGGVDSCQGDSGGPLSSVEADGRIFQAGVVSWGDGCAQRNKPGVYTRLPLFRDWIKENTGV

SMILES: CC[C@H](C)[C@@H]1NC(=O)[C@@H]2CCCN2C(=O)[C@@H]2CCCN2C(=O)[C@H]([C@@H](C)CC)NC(=O)[C@H](CO)NC(=O)[C@H](CCCCN)NC(=O)[C@H]([C@@H](C)O)NC(=O)[C@@H]2CSSC[C@H](NC1=O)C(=O)N[C@@H](Cc1ccccc1)C(=O)N1CCC[C@H]1C(=O)N[C@@H](CC(=O)O)C(=O)NCC(=O)N[C@@H](CCCNC(=N)N)C(=O)N2 [SFTI-1]
- Ki [1]: 500 µM
- inhibitory activity against thrombin compared with matriptase (thrombin): three orders of magnitude lower
- Ki (bovine thrombin): 5050 nM
- inhibitory constant (Ki) against cathepsin G (cathepsin G): subnanomolar
- inhibitory activity against elastase compared with matriptase (elastase): three orders of magnitude lower
- effect on the activity of Factor Xa (Factor Xa): no detectable effect
- inhibitory constant (Ki) against matriptase (matriptase): subnanomolar
